In the assay the test system is CEM cells HIV-1 protection, formazan growth assay. Kind of assay: NCI AIDS Antiviral Assay. The conditions noted are these: for IC50: measured here: growth of uninfected CEM cells. In outline: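 Protection of CEM cells against HIV-1 was scored from cell growth (soluble formazan) across five concentrations, with parallel uninfected cells. Lack of protection may reflect toxicity.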

The source made the active and inactive calls.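 The calls were made as follows: active = compounds giving half or more protection of infected cells from virus-caused growth loss, again on retest; inactive = the rest.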

For orientation: EC50 means the concentration giving half of the maximal effect. Usually IC50 stands for the concentration that gives 50% inhibition. A higher IC50 goes with weaker potency in that assay.

For the molecule `CC1=CC(=O)c2cccc(NC3=NCCO3)c21`, the EC50 was greater than 200 µM and the IC50 is 72.4 µM. For `C/C(=C\c1ccccc1)C(=O)c1c(C)cc(C)cc1C`, in that order: greater than 38 µM and greater than 38 µM. Consider `CC1=C2[C@H](c3ccccc3)C3C=CC2(c2ccccc23)N(C(=O)C(c2ccccc2)c2ccccc2)C1=O` (stereo partly drawn), for which the EC50 is greater than 1.51 µM and the IC50 is greater than 1.51 µM.

For `CCOP(=O)(OCC)C(Nc1cccc([N+](=O)[O-])c1)c1ccccc1` (stereo not drawn), the EC50 was greater than 200 µM and the 50% inhibitory concentration (IC50) was 174 µM. In the same order, the values of `C1=CC2CCC1C1CN(CCCN3CCOCC3)CC21` (stereo not drawn) are greater than 708 µM and greater than 708 µM. For `CCOC(=O)CN1C(=O)C(=O)c2ccccc21`, the EC50 is greater than 200 µM and the IC50 worked out at 33.9 µM.

In the case of `O=C(/C=C/c1cccc([N+](=O)[O-])c1)c1ccccc1`, the EC50 is greater than 20.4 µM and the IC50 was found to be 11.5 µM. For the molecule `O=C(CNC(=O)Nc1ccc(NC(=O)NCC(=O)Nc2ccc(C3=NCCN3)cc2)cc1)Nc1ccc(C2=NCCN2)cc1`, the concentration giving a half-maximal response (EC50) was 81.3 µM and the half-inhibitory concentration (IC50) was greater than 200 µM. For `CCNC1CC(C(C)(C)NCC)CC=C1C` (stereo not drawn), in that order: greater than 224 µM and greater than 224 µM. For `COc1cccc(N=N/C(=N/NC(=O)c2cc(Cl)ccc2O)c2ccc(N(CCC#N)CCC#N)cc2C)c1`, in that order: greater than 200 µM and 29.5 µM. In the same order, the values of `CCOC(=O)c1c2nc3ccccc3sc-2c(C(=O)OCC)c1C(=O)OCC` are greater than 20 µM and 0.977 µM. For the molecule `CCOC(=O)/C(=C\c1cccc(F)c1)C(C)=O`, the EC50 was greater than 398 µM and the IC50 is 182 µM. In the same order, the values of `Cc1cc(N(CCC#N)CCC#N)ccc1/C=C1N=C(/C=C/c2ccccc2)OC(=O)N\1` are greater than 3.39 µM and greater than 3.39 µM. With `CC1=CP(=O)(c2ccccc2)C=C(C)C1=C(Cl)Cl` (stereo not drawn), the outcome was inactive.

`CCOC(=O)C(NCc1ccc2c(c1)OCO2)(NC(=O)c1ccccc1)C(F)(F)F` (stereo not drawn): the EC50 is greater than 200 µM and the IC50 turned out to be 30.2 µM. Take `CSc1snc2sc3c(Cl)nnnc3c12`: the result was inactive. With `Cc1cc(N=Nc2ccc(Sc3ccc(N=Nc4ccc(O)c(C(=O)O)c4)cc3)cc2)c(N)c(N=Nc2ccc(C(=O)O)cc2)c1N`, the EC50 was greater than 200 µM and the concentration for half-maximal inhibition (IC50) is 27.5 µM. In the same order, the values of `CSCCC(NC(=O)Cc1ccc(C(=O)c2ccccc2)cc1)C(=O)O` (stereo not drawn) are greater than 200 µM and greater than 200 µM. `CCc1nnc(CC)n1-n1c(Cc2ccccc2)n[nH]c1=O`: the EC50 is greater than 200 µM and the half-maximal inhibitory concentration (IC50) is greater than 200 µM. Consider `Cc1ccc(-c2c(N)nc(NC#N)nc2CCC(=O)Nc2ccccc2[N+](=O)[O-])cc1`, for which the outcome was inactive. As for `CCN(CC)Cc1c(/C=C\c2cc(OC)c(OC)c(OC)c2)ccc(OC)c1O`, the EC50 was greater than 200 µM and the half-maximal inhibitory concentration (IC50) came out at 1.1 µM. For `CCOC1(OCC)CS(=O)(=O)C1c1ccccc1` (stereo not drawn), in that order: greater than 661 µM and greater than 661 µM. In the same order, the values of `O=C(O)CN1CCNCCN(CP(=O)(O)O)CC1` are greater than 200 µM and 10.5 µM. In the case of `COc1ccc(C2Oc3c(cccc3OC)C=C2[N+](=O)[O-])cc1OC` (stereo not drawn), the EC50 is greater than 200 µM and the half-inhibitory concentration (IC50) was determined as 1.2 µM. For `O=[N+]([O-])c1ccc2nsnc2c1`, in that order: greater than 105 µM and 47.9 µM. For `C=CCN=C1N=C(C)C(C(=O)OCC)S1` (stereo not drawn), in that order: greater than 30.2 µM and 17.8 µM. For `Cc1cn(C2CC(S(=O)c3ccccc3)C(CO)O2)c(=O)[nH]c1=O` (stereo not drawn), in that order: greater than 200 µM and greater than 200 µM. For the molecule `Cn1c(-c2ccccc2)cc(-c2ccsc2)c1-c1ccsc1`, the EC50 was greater than 200 µM and the IC50 was found to be 158 µM. As to `COC1=CC(=O)C(OC)=C(C2C(=O)N(C)c3ccccc32)C1=O` (stereo not drawn), the EC50 was greater than 200 µM and the IC50 is 61.7 µM. Consider `Nc1nccc2c1ncn2C1OC(CO)C(O)C1O` (stereo not drawn), for which the EC50 was greater than 933 µM and the IC50 amounted to 30.2 µM. As to `COc1cc(C2(C)SCCCS2)cc(OC)c1OC`, the EC50 is greater than 182 µM and the IC50 is greater than 182 µM. Take `FC(F)(F)c1ccc2nc(Nc3ccc(Cl)c(Cl)c3)c(-c3ccccc3)nc2c1`: the EC50 is greater than 12 µM and the IC50 was 8.13 µM. Consider `C=CCc1oc(C)nc1CCCC`, for which the EC50 was greater than 200 µM and the concentration for half-maximal inhibition (IC50) was greater than 200 µM. For `CCOC(=O)/C(F)=C/c1cccc(F)c1`, the EC50 was greater than 170 µM and the IC50 is greater than 170 µM. On to `COC1=C(NC(C)=O)C(=O)c2nc3n(c2C1=O)CCC3`, for which the EC50 was greater than 200 µM and the 50% inhibitory concentration (IC50) was found to be 75.9 µM. Consider `O=C1NN(C2=NNC3(C(=O)N2)c2ccccc2-c2ccccc23)C(c2ccccc2)=N/C1=C/c1ccc(O)cc1`, for which the EC50 is greater than 100 µM and the IC50 amounted to 66.1 µM. With `CC(C)=CCC1(c2ccccc2)Oc2ccccc2-n2cccc2C1=O` (stereo not drawn), the EC50 is greater than 200 µM and the IC50 was found to be 138 µM. In the same order, the values of `Cc1nc(Nc2nc3ccccc3[nH]2)[nH]c(=O)c1CCO` are greater than 200 µM and greater than 200 µM. For `O=c1c2cc(S(=O)(=O)Nc3c(Cl)cccc3Cl)ccc2ncn1NS(=O)(=O)c1ccc2ccccc2c1`, in that order: greater than 200 µM and 37.2 µM. In the same order, the values of `O=C(c1ccccc1)C(O)(Cc1ccccc1)c1ccccc1` (stereo not drawn) are greater than 85.1 µM and 70.8 µM. On to `Cc1sc2c(c1C)c(=O)[nH]c1c(C#N)c(-c3ccc(Cl)cc3)cn12`, for which the EC50 is 186 µM and the IC50 is greater than 200 µM. For `CN(CC(O)C(O)CN(C)C(=S)S)C(=S)S` (stereo not drawn), in that order: greater than 661 µM and 170 µM.

On to `COc1ccc(-c2cc(=O)c3c(O)cc(OC)cc3o2)cc1`, for which the EC50 was 70.8 µM and the IC50 is 74.1 µM. For `C=C=C(CC1CCCCC1=O)S(=O)(=O)c1ccccc1` (stereo not drawn), in that order: greater than 200 µM and 6.46 µM. Consider `Cc1c(C)c(CC(C)(COS(C)(=O)=O)COS(C)(=O)=O)c(C)c(C)c1CC(C)(COS(C)(=O)=O)COS(C)(=O)=O`, for which the EC50 is greater than 20.9 µM and the half-maximal inhibitory concentration (IC50) is greater than 20.9 µM.

On to `c1cnc(NC(Nc2cnccn2)C2CCCCC2)cn1`, for which the EC50 is greater than 240 µM and the half-inhibitory concentration (IC50) was greater than 240 µM. Turning to `C=C1C(C(=O)OC)[C@H]1C(=O)OC` (stereo partly drawn), the 50% effective concentration (EC50) was 5.5 µM and the IC50 is greater than 200 µM. As for `O=C(O)c1cc(Cl)n[nH]c1=O`, the EC50 was greater than 1410 µM and the IC50 was greater than 1410 µM. Regarding `CNC(=O)N1CCN(C(=O)NC)CCN(C(=O)NC)CC1`, the EC50 was greater than 200 µM and the half-inhibitory concentration (IC50) was greater than 200 µM. Take `Cc1nc(Nc2ccccc2)sc1C(=O)CC(=O)C(=O)NC12CC3CC(CC(C3)C1)C2`: the EC50 is greater than 81.3 µM and the half-maximal inhibitory concentration (IC50) was greater than 81.3 µM. Take `CC1(C)O[C@@H](CCl)C[C@@H](C#N)O1`: the result was inactive. The same measure, in the same setting: to `O=c1oc2ccc([N+](=O)[O-])cc2cc1-c1csc(-c2ccccc2)n1` belongs “inactive”. As for `CN1CCCc2cc(/C=C\c3ccnc4ccccc34)ccc21`, the EC50 was 0.0631 µM and the half-maximal inhibitory concentration (IC50) is 4.37 µM. In the same order, the values of `O=c1[nH]c(=O)n(COCc2ccccc2)c2ccc([N+](=O)[O-])cc12` are greater than 200 µM and greater than 200 µM. For `O=c1[nH]c(=O)n2n1C1C=CC2CC1`, in that order: greater than 200 µM and greater than 200 µM. `NCCN(CCN)/[N+]([O-])=N/O`: the EC50 was greater than 200 µM and the IC50 is greater than 200 µM.

In the case of `CC1CCC/C(=N/NC(N)=O)C12CC2` (stereo not drawn), the EC50 was greater than 200 µM and the IC50 was greater than 200 µM. Take `COc1ccc(C2=C(Cl)c3cc(OC)c(OC)cc3C2OC)cc1OC` (stereo not drawn): the EC50 is greater than 26.3 µM and the 50% inhibitory concentration (IC50) is greater than 26.3 µM. On to `COc1cc(/C=C2\N=C(c3ccccc3)OC2=O)cc(OC)c1OC`, for which the EC50 is greater than 21.4 µM and the 50% inhibitory concentration (IC50) was greater than 21.4 µM. In the case of `CN(C)C1=CC(=O)c2ccccc2C12CO2` (stereo not drawn), the EC50 was greater than 234 µM and the IC50 stood at 41.7 µM.

Regarding `N#CC12CNCC1CN=N2` (stereo not drawn), the EC50 was greater than 200 µM and the IC50 is greater than 200 µM.

`O=C(NCCCCCCCCNC(=O)c1cnc2ccccc2n1)c1cnc2ccccc2n1`: the EC50 was greater than 398 µM and the IC50 came to 56.2 µM. In the same order, the values of `C(=Nc1ccc(SSc2ccc(N=Cc3ccccc3)cc2)cc1)c1ccccc1` are greater than 200 µM and 33.1 µM. On to `CCC[CH2][Sn]([CH2]CCC)([S]C1=NCCS1)[S]C1=NCCS1`, for which the EC50 was greater than 39.8 µM and the IC50 was 0.759 µM. In the same order, the values of `CN1C(Cl)=NS(=O)(=O)c2ccccc21` are greater than 200 µM and greater than 200 µM. Take `CCOC(=O)CCCN(c1[nH]c(C)c(C)c1C#N)S(=O)(=O)c1ccc(C)cc1`: the EC50 is greater than 200 µM and the 50% inhibitory concentration (IC50) turned out to be 81.3 µM.

On to `CC(=O)Nc1ccc(C2C(C(=O)Nc3ccccc3C)=C(C)NC(C)=C2C(=O)Nc2ccccc2C)cc1`, for which the EC50 is greater than 70.8 µM and the IC50 was greater than 70.8 µM.

Turning to `CC1(C)C(=O)c2cc3ccccc3nc2-c2ccccc21`, the EC50 was greater than 200 µM and the half-maximal inhibitory concentration (IC50) is 24.5 µM. On to `CN(C)CCn1c(=O)oc2cc(C(=O)CN3CCOCC3)ccc21`, for which the EC50 was greater than 200 µM and the 50% inhibitory concentration (IC50) was found to be 102 µM. For `O=C(Cc1nc2ccc(C(=O)c3ccccc3)cc2[nH]c1=O)C(=O)Nc1nc2ccccc2[nH]1`, the outcome was inactive. Consider `CC(=O)/C(=C/n1c(=S)[nH]c2ccccc21)C(=O)Nc1ccc([N+](=O)[O-])cc1`, for which the EC50 is greater than 200 µM and the concentration for half-maximal inhibition (IC50) is 105 µM.

Take `O=[N+]([O-])c1ccc(C2NC3=C(CCCC3)N2)cc1`: the EC50 was greater than 40.7 µM and the IC50 was greater than 40.7 µM.

In the case of `CN1CC(=O)N(C)c2ncn(Cc3ccccc3)c2C1=O`, the outcome was inactive. On to `c1ccc2c(c1)CCCN1CCc3ccccc3C21` (stereo not drawn), for which the EC50 was greater than 200 µM and the IC50 worked out at 51.3 µM. In the same order, the values of `O=c1c2ccccc2oc2ccccc12.[Cl][Hg][Cl]` are greater than 11.2 µM and greater than 11.2 µM.
